According to patent US8846739B2, “TGR5 agonists” (Exelixis Patent Company LLC, priority 2009, dated 2014):

What was measured:
[1] = biological target: T1, h-TGR5 (Homo sapiens, UniProt Q8TDU6); test: TGR5 cAMP Assay using Cisbio cAMP Dynamic 2 htrf assay kit; assay type: cell-based; conditions: hTGR5CRE-luc HEK 293 cells
T1 sequence (Q8TDU6 1-330): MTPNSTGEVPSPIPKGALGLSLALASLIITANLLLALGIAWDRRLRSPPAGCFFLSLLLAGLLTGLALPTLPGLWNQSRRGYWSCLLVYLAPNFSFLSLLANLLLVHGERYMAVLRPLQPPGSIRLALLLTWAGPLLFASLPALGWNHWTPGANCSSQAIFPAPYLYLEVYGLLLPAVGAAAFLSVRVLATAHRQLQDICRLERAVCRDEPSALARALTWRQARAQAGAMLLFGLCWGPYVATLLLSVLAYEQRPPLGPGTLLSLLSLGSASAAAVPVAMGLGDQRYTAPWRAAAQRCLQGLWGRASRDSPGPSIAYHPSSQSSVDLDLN
Protocol: Compounds were diluted in DPBS with 5% DMSO (8-point serial dilution by half logs) in a 96-well plate and 1 μL was transferred to a 384-well assay plate in quadruplicate. The d2-cAMP and anti-cAMP Ab-cryptate stock solution were prepared as per the instructions in the Cisbio™ (Bedford, Mass.) kit. Cells (hTGR5CRE-luc HEK 293 and mTGR5CRE-luc HEK 293) were harvested using cell dissociation buffer and resuspended in DPBS. Cells were adjusted to 0.44×10^6 cells/ml followed by addition of IBMX to a final concentration of 0.5 mM. The cells were then mixed with d2-cAMP solution (7.1 mL cells+100 ul d2-cAMP) and 4000 cells (9 μL) were transferred to each well of the 384-well assay plate. Cells without d2-cAMP were added to eight wells as a negative control. The plate was covered and incubated at room temp for 30 min. Then 10 μL of Ab-cryptate solution was added to each well of the assay plate and incubated for 1 hr. The plate was read on an EnVision™ plate reader (Perkin-Elmer, Waltham, Mass.) and the DeltaF value was calculated as per the instructions in the Cisbio™ kit.
(§1) In the following tables, ECso values determined according to the TGR5 cAMP Assay are noted (cAMP); EC50 values determined according to the TGR5/CRE-Luciferiase Assay are noted (CRE-Luc).

[2] = biological target: T2, human TGR5 (h-TGR5) (Homo sapiens, UniProt Q8TDU6); test: TGR5/CRE-Luciferase Assay; assay type: cell-based; conditions: HEK 293 hTGR5/CRE-Luc cells, 6 hours incubation, read-out: CRE-Luc Agonist (EC50)
T2 sequence (Q8TDU6 1-330): T1 sequence (Q8TDU6 1-330)
Protocol: HEK 293 cells stably expressing human TGR5 (h-TGR5) or mouse TGR5 (m-TGR5) were generated from HEK 293 CRE-Luciferase cells. The day before the assay, HEK 293 hTGR5/CRE-Luc cells were plated in DMEM in a 384 well assay plate at a density of 25 k cells/45 μL per well and grown for 18-20 hours. Compounds were serially diluted in DMEM containing 5% DMSO and 5 µL of compound or media alone was transferred to each well and plates were incubated for 6 hours. Following incubation, 30 μL of lysis/luciferase buffer was added to each well. The luciferase activity was then measured on the EnVision™ plate reader and the dose response data was analyzed using ActivityBase.
as §1

EC50 [1] [nM] | EC50 [2] [nM] | SMILES
< 100 | < 100 | CC[N+](CC)(CC)CCCNS(=O)(=O)c1cc(F)c(CSc2ncc(C(C)(C)c3ccc(F)c(OC)c3)n2-c2ccc(F)cc2)c(Cl)c1 [Example 6o, 3-({[3-chloro-5-fluoro-4-({[5-{1-[4-fluoro-3-(methyloxy)phenyl]-1-methylethyl}-1-(4-fluorophenyl)-1H-imidazol-2-yl]thio}methyl)phenyl]sulfonyl}amino)-N,N,N-triethylpropan-1-aminium]
< 100 | < 100 | CC[N+](C)(C)C1CCN(S(=O)(=O)c2cc(F)c(CSc3ncc(C(C)(C)c4ccc(Cl)c(OC)c4)n3-c3ccc(F)cc3)c(Cl)c2)CC1 [Compound 11j, 1-{[3-chloro-4-({[5-{1-[4-chloro-3-(methyloxy)phenyl]-1-methylethyl}-1-(4-fluorophenyl)-1H-imidazol-2-yl]thio}methyl)-5-fluorophenyl)sulfonyl}-N-ethyl-N,N-dimethylpiperidin-4-aminium]
< 100 | < 100 | COc1cc(C(C)(C)c2cnc(SCc3c(F)cc(S(=O)(=O)N(CCCC[N+](C)(C)C)C(C)(C)C(=O)O)cc3F)n2-c2ccc(F)cc2)ccc1Cl [Compound 14ai, 4-(N-(2-carboxypropan-2-yl)-4-((5-(2-(4-chloro-3-methoxyphenyl)propan-2-yl)-1-(4-fluorophenyl)-1H-imidazol-2-ylthio)methyl)-3,5-difluorophenylsulfonamido)-N,N,N-trimethylbutan-1-aminium 2,2,2-trifluoroacetate]
< 100 | < 100 | COc1cc(C(C)(C)c2cnc(SCc3c(F)cc(S(=O)(=O)N(CCC[n+]4ccccc4)[C@H](C)C(=O)O)cc3Cl)n2-c2ccc(F)cc2)ccc1Cl [Compound 15a, (R)-1-(3-(N-(1-carboxyethyl)-3-chloro-4-((5-(2-(4-chloro-3-methoxyphenyl)propan-2-yl)-1-(4-fluorophenyl)-1H-imidazol-2-ylthio)methyl)-5-fluorophenylsulfonamido)propyl)pyridinium chloride]
< 100 | < 100 | COc1cc(C(C)(C)c2cnc(SCc3c(F)cc(S(=O)(=O)N[C@H]4CCC[N+](C)(C)C4)cc3F)n2-c2ccc(F)cc2)ccc1Cl [Compound 11e, (3S)-3-({[4-({[5-{1-[4-chloro-3-(methyloxy)phenyl]-1-methylethyl}-1-(4-fluorophenyl)-1H-imidazol-2-yl]thio}methyl)-3,5-difluorophenyl]sulfonyl}amino)-1,1-dimethylpiperidinium]
100 to 1000 | < 100 | COc1cc(C(C)(C)c2cnc(SCc3c(F)cc(S(=O)(=O)N(CCC[N+](C)(C)C)[C@@H](CCC(=O)O)C(=O)O)cc3F)n2-c2ccc(F)cc2)ccc1Cl [Compound 14ag, (S)-3-(4-((5-(2-(4-chloro-3-methoxyphenyl)propan-2-yl)-1-(4-fluorophenyl)-1H-imidazol-2-ylthio)methyl)-N-(1,3-dicarboxypropyl)-3,5-difluorophenylsulfonamido)-N,N,N-trimethylpropan-1-aminium]
< 100 | < 100 | COc1cc(C(C)(C)c2cnc(SCc3c(F)cc(S(=O)(=O)N4CC([N+](C)(C)C)C4)cc3Cl)n2-c2ccc(F)cc2)ccc1Cl [Compound 11n, 1-{[3-chloro-4-({[5-{1-[4-chloro-3-(methyloxy)phenyl]-1-methylethyl}-1-(4-fluorophenyl)-1H-imidazol-2-yl]thio}methyl)-5-fluorophenyl]sulfonyl}-N,N,N-trimethylazetidin-3-aminium]
< 100 | < 100 | COc1cc(C(C)(C)c2cnc(SCc3c(F)cc(CCC[N+](C)(C)C)cc3F)n2-c2ccc(F)cc2)ccc1Cl [Compound 19a, 3-(4-((5-(2-(4-chloro-3-methoxyphenyl)propan-2-yl)-1-(4-fluorophenyl)-1H-imidazol-2-ylthio)methyl)-3,5-difluorophenyl)-N,N,N-trimethylpropan-1-aminium 2,2,2-trifluoroacetate]
< 100 | < 100 | COc1cc(-n2c(C(C)(C)c3ccc(Cl)c(Cl)c3)cnc2SCc2c(F)cc(S(=O)(=O)NCCC[N+](C)(C)C)cc2F)ccc1F [Example 6e, 3-[({4-[({5-[1-(3,4-dichlorophenyl)-1-methylethyl]-1-[4-fluoro-3-(methyloxy)phenyl]-1H-imidazol-2-yl}thio)methyl]-3,5-difluorophenyl}sulfonyl)amino]-N,N,N-trimethylpropan-1-aminium]
< 100 | < 100 | COc1cc(C(C)(C)c2cnc(SCc3c(F)cc(S(=O)(=O)N(C)[C@H](CCC[N+](C)(C)C)C(=O)O)cc3F)n2-c2ccc(F)cc2)ccc1Cl [Compound 17c, (R)-4-carboxy-4-(4-((5-(2-(4-chloro-3-methoxyphenyl)propan-2-yl)-1-(4-fluorophenyl)-1H-imidazol-2-ylthio)methyl)-3,5-difluoro-N-methylphenylsulfonamido)-N,N,N-trimethylbutan-1-aminium 2,2,2-trifluoroacetate]
< 100 | < 100 | COc1cc(C(C)(C)c2cnc(SCc3c(F)cc(S(=O)(=O)N(CCC[N+](C)(C)C)[C@@H](C)C(=O)O)cc3Cl)n2-c2ccc(F)cc2)ccc1Cl [Compound 14x, 3-([(1S)-1-carboxyethyl]{[3-chloro-4-({[5-{1-[4-chloro-3-(methyloxy)phenyl]-1-methylethyl}-1-(4-fluorophenyl)-1H-imidazol-2-yl]thio}methyl)-5-fluorophenyl]sulfonyl}amino)-N,N,N-trimethylpropan-1-aminium]

The next lines start with the compound.

SMILES | EC50 [1] [nM] | EC50 [2] [nM]
COc1cc(-n2c(C(C)(C)c3ccc4onc(N)c4c3)cnc2SCc2c(F)cc(C(=O)NCC[N+](C)(C)C)cc2Cl)ccc1F [Example 1b, 2-[({4-[({5-[1-(3-amino-1,2-benzisoxazol-5-yl)-1-methylethyl]-1-[4-fluoro-3-(methyloxy)phenyl]-1H-imidazol-2-yl}thio)methyl]-3-chloro-5-fluorophenyl}carbonyl)amino]-N,N,N-trimethylethanaminium] | < 100 | < 100
COc1cc(C(C)(C)c2cnc(SCc3c(F)cc(C(=O)NCC[N+]4(C)CC[N+](C)(C)CC4)cc3Cl)n2-c2ccc(F)cc2)ccc1Cl [Example 2i, 1-[2-({[3-chloro-4-({[5-{1-[4-chloro-3-(methyloxy)phenyl]-1-methylethyl}-1-(4-fluorophenyl)-1H-imidazol-2-yl]thio}methyl)-5-fluorophenyl]carbonyl}amino)ethyl]-1,4,4-trimethylpiperazinediium] | 100 to 1000 | 100 to 1000
CC(C)(c1ccc2onc(N)c2c1)c1cnc(SCc2c(F)cc(C(=O)NCC[N+](C)(C)C)cc2Cl)n1-c1ccc(F)cc1 [Example 1c, 2-[({4-[({5-[1-(3-amino-1,2-benzisoxazol-5-yl)-1-methylethyl]-1-(4-fluorophenyl)-1H-imidazol-2-yl}thio)methyl]-3-chloro-5-fluorophenyl}carbonyl)amino]-N,N,N-trimethylethanaminium] | < 100 | < 100
COc1cc(C(C)(C)c2cnc(SCc3c(F)cc(C(=O)N4CCC([N+](C)(C)C)CC4)cc3Cl)n2-c2ccc(F)cc2)ccc1Cl [Example 2l, 1-{[3-chloro-4-({[5-{1-[4-chloro-3-(methyloxy)phenyl]-1-methylethyl}-1-(4-fluorophenyl)-1H-imidazol-2-yl]thio}methyl)-5-fluorophenyl]carbonyl}-N,N,N-trimethylpiperidin-4-aminium] | < 100 | < 100
COc1cc(C(C)(C)c2cnc(SCc3c(F)cc(C(=O)NCC4(O)CC[N+](C)(C)CC4)cc3Cl)n2-c2ccc(F)cc2)ccc1Cl [Example 2m, 4-[({[3-chloro-4-({[5-{1-[4-chloro-3-(methyloxy)phenyl]-1-methylethyl}-1-(4-fluorophenyl)-1H-imidazol-2-yl]thio}methyl)-5-fluorophenyl]carbonyl}amino)methyl]-4-hydroxy-1,1-dimethylpiperidinium] | < 100 | < 100
